{"source": "PubChem BioAssay AID2060883", "about": "(Molecular Pharmacology Branch, DTP, NCI, 2025);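 note: viability read after seven days of compound exposure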", "tested_on": "843782-103-R-J1-PDC complex spheroid viability", "experiment": "Anticancer human tumor 843782-103-R-J1-PDC patient-derived lung adenocarcinoma cell line growth inhibition [RAS]", "details": "for IC50: curve of first compound; for viability, T/C: stronger effect = lower value", "summary_of_the_method": "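Agents were tested in combination matrices in half-log decrements from a top concentration at or near clinical Cmax (10 microM if undetermined). Targets were multi-cell spheroids of tumour lines plus HUVEC and MSC stromal cells.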"}
{"smiles": "CC(C)n1nc(-c2ccc3oc(N)nc3c2)c2c(N)ncnc21", "note": "+ C#Cc1c(F)ccc2cc(O)cc(-c3ncc4c(N5CC6CCC(C5)N6)nc(OCC56CCCN5CC(F)C6)nc4c3F)c12", "values": [{"measurement": "IC50", "setting": "second compound 0.0316 µM", "value": 38.3, "unit": "nM"}, {"measurement": "IC50", "setting": "second compound 0.1 µM", "value": 24.4, "unit": "nM"}, {"measurement": "IC50", "setting": "second compound 0.316 µM", "value": 20.8, "unit": "nM"}, {"measurement": "IC50", "setting": "second compound 1 µM", "value": 18.9, "unit": "nM"}, {"measurement": "IC50", "setting": "second compound 3.16 µM", "value": 6.61, "unit": "nM"}, {"measurement": "IC50", "setting": "second compound 10 µM", "value": 0.794, "unit": "nM"}, {"measurement": "viability, T/C", "setting": "second compound 0.0316 µM, first compound 0.000316 µM", "value": 108, "unit": "%"}, {"measurement": "viability, T/C", "setting": "second compound 0.0316 µM, first compound 0.001 µM", "value": 93.9, "unit": "%"}, {"measurement": "viability, T/C", "setting": "second compound 0.0316 µM, first compound 0.00316 µM", "value": 97.5, "unit": "%"}, {"measurement": "viability, T/C", "setting": "second compound 0.0316 µM, first compound 0.01 µM", "value": 70.8, "unit": "%"}, {"measurement": "viability, T/C", "setting": "second compound 0.0316 µM, first compound 0.0316 µM", "value": 55.1, "unit": "%"}, {"measurement": "viability, T/C", "setting": "second compound 0.0316 µM, first compound 0.1 µM", "value": 31.2, "unit": "%"}, {"measurement": "viability, T/C", "setting": "second compound 0.1 µM, first compound 0.000316 µM", "value": 105, "unit": "%"}, {"measurement": "viability, T/C", "setting": "second compound 0.1 µM, first compound 0.001 µM", "value": 95.7, "unit": "%"}, {"measurement": "viability, T/C", "setting": "second compound 0.1 µM, first compound 0.00316 µM", "value": 93.8, "unit": "%"}, {"measurement": "viability, T/C", "setting": "second compound 0.1 µM, first compound 0.01 µM", "value": 72.5, "unit": "%"}, {"measurement": "viability, T/C", "setting": "second compound 0.1 µM, first compound 0.0316 µM", "value": 42.8, "unit": "%"}, {"measurement": "viability, T/C", "setting": "second compound 0.1 µM, first compound 0.1 µM", "value": 29.8, "unit": "%"}, {"measurement": "viability, T/C", "setting": "second compound 0.316 µM, first compound 0.000316 µM", "value": 101, "unit": "%"}, {"measurement": "viability, T/C", "setting": "second compound 0.316 µM, first compound 0.001 µM", "value": 91.2, "unit": "%"}, {"measurement": "viability, T/C", "setting": "second compound 0.316 µM, first compound 0.00316 µM", "value": 91.2, "unit": "%"}, {"measurement": "viability, T/C", "setting": "second compound 0.316 µM, first compound 0.01 µM", "value": 66.3, "unit": "%"}, {"measurement": "viability, T/C", "setting": "second compound 0.316 µM, first compound 0.0316 µM", "value": 40.6, "unit": "%"}, {"measurement": "viability, T/C", "setting": "second compound 0.316 µM, first compound 0.1 µM", "value": 26, "unit": "%"}, {"measurement": "viability, T/C", "setting": "second compound 1 µM, first compound 0.000316 µM", "value": 99.7, "unit": "%"}, {"measurement": "viability, T/C", "setting": "second compound 1 µM, first compound 0.001 µM", "value": 87.8, "unit": "%"}, {"measurement": "viability, T/C", "setting": "second compound 1 µM, first compound 0.00316 µM", "value": 81.7, "unit": "%"}, {"measurement": "viability, T/C", "setting": "second compound 1 µM, first compound 0.01 µM", "value": 62.1, "unit": "%"}, {"measurement": "viability, T/C", "setting": "second compound 1 µM, first compound 0.0316 µM", "value": 39.6, "unit": "%"}, {"measurement": "viability, T/C", "setting": "second compound 1 µM, first compound 0.1 µM", "value": 21.8, "unit": "%"}, {"measurement": "viability, T/C", "setting": "second compound 3.16 µM, first compound 0.000316 µM", "value": 93, "unit": "%"}, {"measurement": "viability, T/C", "setting": "second compound 3.16 µM, first compound 0.001 µM", "value": 70, "unit": "%"}, {"measurement": "viability, T/C", "setting": "second compound 3.16 µM, first compound 0.00316 µM", "value": 71.8, "unit": "%"}, {"measurement": "viability, T/C", "setting": "second compound 3.16 µM, first compound 0.01 µM", "value": 39.1, "unit": "%"}, {"measurement": "viability, T/C", "setting": "second compound 3.16 µM, first compound 0.0316 µM", "value": 25.3, "unit": "%"}, {"measurement": "viability, T/C", "setting": "second compound 3.16 µM, first compound 0.1 µM", "value": 19.4, "unit": "%"}, {"measurement": "viability, T/C", "setting": "second compound 10 µM, first compound 0.000316 µM", "value": 63.3, "unit": "%"}, {"measurement": "viability, T/C", "setting": "second compound 10 µM, first compound 0.001 µM", "value": 41, "unit": "%"}, {"measurement": "viability, T/C", "setting": "second compound 10 µM, first compound 0.00316 µM", "value": 38.5, "unit": "%"}, {"measurement": "viability, T/C", "setting": "second compound 10 µM, first compound 0.01 µM", "value": 28, "unit": "%"}, {"measurement": "viability, T/C", "setting": "second compound 10 µM, first compound 0.0316 µM", "value": 18.8, "unit": "%"}, {"measurement": "viability, T/C", "setting": "second compound 10 µM, first compound 0.1 µM", "value": 10.6, "unit": "%"}]}
